Measurements reported in patent US7118895B2, “Process for producing aglycon by using diglycosidase and flavor-improved food containing the aglycon and converting agent to be used in the process” (Amano Enzyme Inc., priority 2000, dated 2006).

Test system: Crude diglycosidase
Test: Examination of pH in the conversion into isoflavone aglycons by diglycosidase using soybean materials
Assay type: biochemical, Penicillium multicolor IAM7153
Details: for Decomposition efficiency of glycitin family in roasted soy flour / Decomposition efficiency of glycitin family in soymilk: 55° C.
Method in brief: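 HPLC detection of isoflavone glycosides and aglycons after ethanol quench at 0, 1, 3 and 6 h. Reactions ran at 55° C over pH 2–11, with crude diglycosidase (enzyme solution at 1.88 AU/mL) added to suspended roasted soy flour, soymilk, defatted soybean or concentrated soy protein.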

[1] = pH6.6, heat treatment of enzyme: no, reaction time 0 h
[2] = pH6.6, heat treatment of enzyme: no, reaction time 1 h
[3] = pH6.6, heat treatment of enzyme: no, reaction time 3 h
[4] = pH6.6, heat treatment of enzyme: no, reaction time 6 h
[5] = pH6.6, heat treatment of enzyme: yes, reaction time 6 h

## COc1cc2c(=O)c(-c3ccc(O)cc3)coc2cc1O[C@@H]1O[C@H](COC(=O)CC(=O)O)[C@@H](O)[C@H](O)[C@H]1O [malonylglycitin, 6″-O-malonylglycitin]
pH1.6, heat treatment of enzyme: no, reaction time 0 h
  Decomposition efficiency of glycitin family in concentrated soybean protein: 0.4%
pH1.6, heat treatment of enzyme: no, reaction time 1 h
  Decomposition efficiency of glycitin family in concentrated soybean protein: 0.4%
pH1.6, heat treatment of enzyme: no, reaction time 3 h
  Decomposition efficiency of glycitin family in concentrated soybean protein: 0.4%
pH1.6, heat treatment of enzyme: no, reaction time 6 h
  Decomposition efficiency of glycitin family in concentrated soybean protein: 0.4%
pH1.6, heat treatment of enzyme: yes, reaction time 6 h
  Decomposition efficiency of glycitin family in concentrated soybean protein: 0.4%
pH2, heat treatment of enzyme no, reaction time 0 h
  Decomposition efficiency of glycitin family in roasted soy flour: not detected
pH2, heat treatment of enzyme no, reaction time 1 h
  Decomposition efficiency of glycitin family in roasted soy flour: not detected
pH2, heat treatment of enzyme no, reaction time 3 h
  Decomposition efficiency of glycitin family in roasted soy flour: not detected
pH2, heat treatment of enzyme no, reaction time 6 h
  Decomposition efficiency of glycitin family in roasted soy flour: not detected
pH2, heat treatment of enzyme yes, reaction time 6 h
  Decomposition efficiency of glycitin family in roasted soy flour: not detected
pH2.3, heat treatment of enzyme no, reaction time 0 h
  Decomposition efficiency of glycitin family in soymilk: 42.6
pH2.3, heat treatment of enzyme no, reaction time 1 h
  Decomposition efficiency of glycitin family in soymilk: 51.3
pH2.3, heat treatment of enzyme no, reaction time 3 h
  Decomposition efficiency of glycitin family in soymilk: 47.7
pH2.3, heat treatment of enzyme no, reaction time 6 h
  Decomposition efficiency of glycitin family in soymilk: 46.5
pH2.3, heat treatment of enzyme yes, reaction time 6 h
  Decomposition efficiency of glycitin family in soymilk: 41.3
pH2.6, heat treatment of enzyme: no, reaction time 0 h
  Decomposition efficiency of glycitin family in defatted soybean: 100.0%
pH2.6, heat treatment of enzyme: no, reaction time 1 h
  Decomposition efficiency of glycitin family in defatted soybean: 100.0%
pH2.6, heat treatment of enzyme: no, reaction time 3 h
  Decomposition efficiency of glycitin family in defatted soybean: 100.0%
pH2.6, heat treatment of enzyme: no, reaction time 6 h
  Decomposition efficiency of glycitin family in defatted soybean: 100.0%
pH2.6, heat treatment of enzyme: yes, reaction time 6 h
  Decomposition efficiency of glycitin family in defatted soybean: 100.0%
pH2.7, heat treatment of enzyme: no, reaction time 0 h
  Decomposition efficiency of glycitin family in concentrated soybean protein: 0.4%
pH2.7, heat treatment of enzyme: no, reaction time 1 h
  Decomposition efficiency of glycitin family in concentrated soybean protein: 0.5%
pH2.7, heat treatment of enzyme: no, reaction time 3 h
  Decomposition efficiency of glycitin family in concentrated soybean protein: 0.5%
pH2.7, heat treatment of enzyme: no, reaction time 6 h
  Decomposition efficiency of glycitin family in concentrated soybean protein: 0.5%
pH2.7, heat treatment of enzyme: yes, reaction time 6 h
  Decomposition efficiency of glycitin family in concentrated soybean protein: 0.4%
pH3, heat treatment of enzyme no, reaction time 0 h
  Decomposition efficiency of glycitin family in roasted soy flour: not detected
pH3, heat treatment of enzyme no, reaction time 1 h
  Decomposition efficiency of glycitin family in roasted soy flour: not detected
pH3, heat treatment of enzyme no, reaction time 3 h
  Decomposition efficiency of glycitin family in roasted soy flour: not detected
pH3, heat treatment of enzyme no, reaction time 6 h
  Decomposition efficiency of glycitin family in roasted soy flour: not detected
pH3, heat treatment of enzyme yes, reaction time 6 h
  Decomposition efficiency of glycitin family in roasted soy flour: not detected
pH3.4, heat treatment of enzyme: no, reaction time 0 h
  Decomposition efficiency of glycitin family in defatted soybean: 100.0%
pH3.4, heat treatment of enzyme: no, reaction time 1 h
  Decomposition efficiency of glycitin family in defatted soybean: 100.0%
pH3.4, heat treatment of enzyme: no, reaction time 3 h
  Decomposition efficiency of glycitin family in defatted soybean: 100.0%
pH3.4, heat treatment of enzyme: no, reaction time 6 h
  Decomposition efficiency of glycitin family in defatted soybean: 100.0%
pH3.4, heat treatment of enzyme: yes, reaction time 6 h
  Decomposition efficiency of glycitin family in defatted soybean: 100.0%
pH3.5, heat treatment of enzyme no, reaction time 0 h
  Decomposition efficiency of glycitin family in soymilk: 42.6
pH3.5, heat treatment of enzyme no, reaction time 1 h
  Decomposition efficiency of glycitin family in soymilk: 21.9
pH3.5, heat treatment of enzyme no, reaction time 3 h
  Decomposition efficiency of glycitin family in soymilk: not detected
pH3.5, heat treatment of enzyme no, reaction time 6 h
  Decomposition efficiency of glycitin family in soymilk: not detected
pH3.5, heat treatment of enzyme yes, reaction time 6 h
  Decomposition efficiency of glycitin family in soymilk: 38.2
pH3.7, heat treatment of enzyme: no, reaction time 0 h
  Decomposition efficiency of glycitin family in concentrated soybean protein: 0.4%
pH3.7, heat treatment of enzyme: no, reaction time 1 h
  Decomposition efficiency of glycitin family in concentrated soybean protein: 0.5%
pH3.7, heat treatment of enzyme: no, reaction time 3 h
  Decomposition efficiency of glycitin family in concentrated soybean protein: 0.4%
pH3.7, heat treatment of enzyme: no, reaction time 6 h
  Decomposition efficiency of glycitin family in concentrated soybean protein: 0.4%
pH3.7, heat treatment of enzyme: yes, reaction time 6 h
  Decomposition efficiency of glycitin family in concentrated soybean protein: 0.4%
pH4, heat treatment of enzyme no, reaction time 0 h
  Decomposition efficiency of glycitin family in roasted soy flour: not detected
pH4, heat treatment of enzyme no, reaction time 1 h
  Decomposition efficiency of glycitin family in roasted soy flour: not detected
pH4, heat treatment of enzyme no, reaction time 3 h
  Decomposition efficiency of glycitin family in roasted soy flour: not detected
pH4, heat treatment of enzyme no, reaction time 6 h
  Decomposition efficiency of glycitin family in roasted soy flour: not detected
pH4, heat treatment of enzyme yes, reaction time 6 h
  Decomposition efficiency of glycitin family in roasted soy flour: not detected
pH4.8, heat treatment of enzyme no, reaction time 0 h
  Decomposition efficiency of glycitin family in soymilk: 43.2
pH4.8, heat treatment of enzyme no, reaction time 1 h
  Decomposition efficiency of glycitin family in soymilk: 37.0
pH4.8, heat treatment of enzyme no, reaction time 3 h
  Decomposition efficiency of glycitin family in soymilk: 21.1
pH4.8, heat treatment of enzyme no, reaction time 6 h
  Decomposition efficiency of glycitin family in soymilk: 8.3
pH4.8, heat treatment of enzyme yes, reaction time 6 h
  Decomposition efficiency of glycitin family in soymilk: 39.2
pH4.8, heat treatment of enzyme: no, reaction time 0 h
  Decomposition efficiency of glycitin family in defatted soybean: 64.0%
pH4.8, heat treatment of enzyme: no, reaction time 1 h
  Decomposition efficiency of glycitin family in defatted soybean: 40.1%
pH4.8, heat treatment of enzyme: no, reaction time 3 h
  Decomposition efficiency of glycitin family in defatted soybean: 37.5%
pH4.8, heat treatment of enzyme: no, reaction time 6 h
  Decomposition efficiency of glycitin family in defatted soybean: 31.9%
pH4.8, heat treatment of enzyme: yes, reaction time 6 h
  Decomposition efficiency of glycitin family in defatted soybean: 56.2%
pH5, heat treatment of enzyme no, reaction time 0 h
  Decomposition efficiency of glycitin family in roasted soy flour: not detected
pH5, heat treatment of enzyme no, reaction time 1 h
  Decomposition efficiency of glycitin family in roasted soy flour: not detected
pH5, heat treatment of enzyme no, reaction time 3 h
  Decomposition efficiency of glycitin family in roasted soy flour: not detected
pH5, heat treatment of enzyme no, reaction time 6 h
  Decomposition efficiency of glycitin family in roasted soy flour: not detected
pH5, heat treatment of enzyme yes, reaction time 6 h
  Decomposition efficiency of glycitin family in roasted soy flour: not detected
pH5.1, heat treatment of enzyme: no, reaction time 0 h
  Decomposition efficiency of glycitin family in concentrated soybean protein: 0.4%
pH5.1, heat treatment of enzyme: no, reaction time 1 h
  Decomposition efficiency of glycitin family in concentrated soybean protein: 0.6%
pH5.1, heat treatment of enzyme: no, reaction time 3 h
  Decomposition efficiency of glycitin family in concentrated soybean protein: 0.6%
pH5.1, heat treatment of enzyme: no, reaction time 6 h
  Decomposition efficiency of glycitin family in concentrated soybean protein: 0.6%
pH5.1, heat treatment of enzyme: yes, reaction time 6 h
  Decomposition efficiency of glycitin family in concentrated soybean protein: 0.4%
pH5.4, heat treatment of enzyme: no, reaction time 0 h
  Decomposition efficiency of glycitin family in defatted soybean: 64.0%
pH5.4, heat treatment of enzyme: no, reaction time 1 h
  Decomposition efficiency of glycitin family in defatted soybean: 45.1%
pH5.4, heat treatment of enzyme: no, reaction time 3 h
  Decomposition efficiency of glycitin family in defatted soybean: 100.0%
pH5.4, heat treatment of enzyme: no, reaction time 6 h
  Decomposition efficiency of glycitin family in defatted soybean: 32.3%
pH5.4, heat treatment of enzyme: yes, reaction time 6 h
  Decomposition efficiency of glycitin family in defatted soybean: 39.3%
pH6.2, heat treatment of enzyme no, reaction time 0 h
  Decomposition efficiency of glycitin family in soymilk: 43.2
pH6.2, heat treatment of enzyme no, reaction time 1 h
  Decomposition efficiency of glycitin family in soymilk: 46.4
pH6.2, heat treatment of enzyme no, reaction time 3 h
  Decomposition efficiency of glycitin family in soymilk: 34.5
pH6.2, heat treatment of enzyme no, reaction time 6 h
  Decomposition efficiency of glycitin family in soymilk: 29.6
pH6.2, heat treatment of enzyme yes, reaction time 6 h
  Decomposition efficiency of glycitin family in soymilk: 37.6
pH6.5, heat treatment of enzyme no, reaction time 0 h
  Decomposition efficiency of glycitin family in roasted soy flour: not detected
pH6.5, heat treatment of enzyme no, reaction time 1 h
  Decomposition efficiency of glycitin family in roasted soy flour: not detected
pH6.5, heat treatment of enzyme no, reaction time 3 h
  Decomposition efficiency of glycitin family in roasted soy flour: not detected
pH6.5, heat treatment of enzyme no, reaction time 6 h
  Decomposition efficiency of glycitin family in roasted soy flour: not detected
pH6.5, heat treatment of enzyme yes, reaction time 6 h
  Decomposition efficiency of glycitin family in roasted soy flour: not detected
[1]
  Decomposition efficiency of glycitin family in concentrated soybean protein: 0.4%
  Decomposition efficiency of glycitin family in defatted soybean: 39.6%
[2]
  Decomposition efficiency of glycitin family in concentrated soybean protein: 0.4%
  Decomposition efficiency of glycitin family in defatted soybean: 52.9%
[3]
  Decomposition efficiency of glycitin family in concentrated soybean protein: 0.4%
  Decomposition efficiency of glycitin family in defatted soybean: 53.6%
[4]
  Decomposition efficiency of glycitin family in concentrated soybean protein: 0.4%
  Decomposition efficiency of glycitin family in defatted soybean: 58.1%
[5]
  Decomposition efficiency of glycitin family in concentrated soybean protein: 0.4%
  Decomposition efficiency of glycitin family in defatted soybean: 50.3%
pH7.2, heat treatment of enzyme no, reaction time 0 h
  Decomposition efficiency of glycitin family in soymilk: 43.9
pH7.2, heat treatment of enzyme no, reaction time 1 h
  Decomposition efficiency of glycitin family in soymilk: 48.8
pH7.2, heat treatment of enzyme no, reaction time 3 h
  Decomposition efficiency of glycitin family in soymilk: 46.2
pH7.2, heat treatment of enzyme no, reaction time 6 h
  Decomposition efficiency of glycitin family in soymilk: 41.6
pH7.2, heat treatment of enzyme yes, reaction time 6 h
  Decomposition efficiency of glycitin family in soymilk: 37.5
pH7.8, heat treatment of enzyme: no, reaction time 0 h
  Decomposition efficiency of glycitin family in defatted soybean: 66.8%
pH7.8, heat treatment of enzyme: no, reaction time 1 h
  Decomposition efficiency of glycitin family in defatted soybean: 57.5%
pH7.8, heat treatment of enzyme: no, reaction time 3 h
  Decomposition efficiency of glycitin family in defatted soybean: 53.2%
pH7.8, heat treatment of enzyme: no, reaction time 6 h
  Decomposition efficiency of glycitin family in defatted soybean: 49.1%
pH7.8, heat treatment of enzyme: yes, reaction time 6 h
  Decomposition efficiency of glycitin family in defatted soybean: 55.8%
pH8.5, heat treatment of enzyme no, reaction time 0 h
  Decomposition efficiency of glycitin family in roasted soy flour: not detected
pH8.5, heat treatment of enzyme no, reaction time 1 h
  Decomposition efficiency of glycitin family in roasted soy flour: not detected
pH8.5, heat treatment of enzyme no, reaction time 3 h
  Decomposition efficiency of glycitin family in roasted soy flour: not detected
pH8.5, heat treatment of enzyme no, reaction time 6 h
  Decomposition efficiency of glycitin family in roasted soy flour: not detected
pH8.5, heat treatment of enzyme yes, reaction time 6 h
  Decomposition efficiency of glycitin family in roasted soy flour: not detected
pH8.6, heat treatment of enzyme: no, reaction time 0 h
  Decomposition efficiency of glycitin family in concentrated soybean protein: 0.4%
pH8.6, heat treatment of enzyme: no, reaction time 1 h
  Decomposition efficiency of glycitin family in concentrated soybean protein: 0.4%
pH8.6, heat treatment of enzyme: no, reaction time 3 h
  Decomposition efficiency of glycitin family in concentrated soybean protein: 0.4%
pH8.6, heat treatment of enzyme: no, reaction time 6 h
  Decomposition efficiency of glycitin family in concentrated soybean protein: 0.4%
pH8.6, heat treatment of enzyme: yes, reaction time 6 h
  Decomposition efficiency of glycitin family in concentrated soybean protein: 0.3%
pH11.6, heat treatment of enzyme no, reaction time 0 h
  Decomposition efficiency of glycitin family in soymilk: 39.4
pH11.6, heat treatment of enzyme no, reaction time 1 h
  Decomposition efficiency of glycitin family in soymilk: 50.4
pH11.6, heat treatment of enzyme no, reaction time 3 h
  Decomposition efficiency of glycitin family in soymilk: 46.5
pH11.6, heat treatment of enzyme no, reaction time 6 h
  Decomposition efficiency of glycitin family in soymilk: 44.0
pH11.6, heat treatment of enzyme yes, reaction time 6 h
  Decomposition efficiency of glycitin family in soymilk: 34.4
